# Laboratory results: US9801880B2, “Use of kinase inhibitors” (BerGenBio AS, priority 2013, dated 2017)
# pIC50, pKd: −log10 of the molar value. Several values for one entry are separate records, joined by “and”; a condition that tells them apart may be missing. Identical values can stand only once.
# Tests used:
# [1] = biological target: T1, c-Kit (V654A) (Homo sapiens, UniProt P10721, V654A); assay: KinaseProfiler kinase activity assay; format: biochemical
# T1 construct: purchased EMD Millipore Corp. (KinaseProfiler service)
# Description: KinaseProfiler™ assays (EMD Millipore Corp. Billerica, Mass., USA) are radioligand binding assays with purified or partially-purified human kinases. Most of the KinaseProfiler™ assays are conducted in 20 mM MOPS, 1 mM EDTA, 0.01% Brij-35, 5% Glycerol, 0.1% b-mercaptoethanol, 1 mg/mL BSA. The assay involves the transfer of ^32P from γ-^32P-ATP to the target peptide, followed by washing and trapping of the labeled peptide on a filter. The concentration of γ-^32P-ATP used was at the established Km for ATP.
# [2] = system: T315I-mutated BCR-ABL1 transduced bone marrow cells; assay: Preclinical CML model, bone marrow cells transduced with T315I-mutated BCR-ABL1; format: in vivo; details: 25 (or 50) mg/Kg twice per day; Balb/c mice
# Description: 6- to 8 week old male Balb/c mice were sublethally irradiated and i.v. injected with 0.5×10^6 retroviral transduced BM cells (pMSCV_gfp/BCR-ABL_T315I).
# Bone marrow donor mice: To harvest donor bone marrow mice were injected subcutaneously with 5-FU (150 mg/kg mice). The bone marrow was isolated five days later and transduced with the desired retroviral construct. [Daley, G. Q., R. A. Van Etten, and D. Baltimore, Induction of chronic myelogenous leukemia in mice by the P210bcr/abl gene of the Philadelphia chromosome. Science, 1990. 247(4944): p. 824-30.]
# [3] = biological target: Abl (T315I) (Homo sapiens, UniProt P00519, T315I); assay: KinomeScan competition binding assay; design: purchased DiscoveRx Corporation (KinomeScan service)
# From the text: (§1) Detailed assay methodologies can be found in the relevant references cited herein, or in the KinaseProfiler Service Assay Protocols (v54, 2011) available from EMD Millipore (www.emdmillipore.com), or from the KinomeScan website (www.kinomescan.com), as appropriate. (For a more detailed description of KINOMEscan's assay technology, see: Fabian et al. A small molecule-kinase interaction map for clinical kinase inhibitors. Nat. Biotechnol. 23, 329-336 (2005)). A summary is provided below.
# (§2) KinomeScan™ assays (DiscoveRx Corporation, San Diego, Calif., USA) are active-site-directed competition binding assays. […] The amount of kinase captured in test versus control samples is determined by using a qPCR method that detects the associated DNA label on each kinase molecule. Dissociation constants (Kd) for test compound-kinase interactions are calculated by measuring the amount of kinase captured on the solid support as a function of the test compound concentration.
# [4] = biological target: Abl(Y253F) (Homo sapiens, UniProt P00519, Y253F); assay: KinomeScan competition binding assay; design: purchased DiscoveRx Corporation (KinomeScan service)
# From the text: as §1, §2
# [5] = biological target: T2, Flt3 (D835Y) (Homo sapiens, UniProt P36888, D835Y); assay: KinomeScan competition binding assay; design: purchased DiscoveRx Corporation (KinomeScan service)
# From the text: as §1, §2
# [6] = biological target: T3, Ret (Homo sapiens, UniProt P07949); assay: KinomeScan competition binding assay; design: purchased DiscoveRx Corporation (KinomeScan service)
# From the text: as §1, §2
# [7] = biological target: T4, Wee1 (Homo sapiens, UniProt P30291); assay: KinomeScan competition binding assay; design: purchased DiscoveRx Corporation (KinomeScan service)
# From the text: as §1, §2
# [8] = biological target: T5, Yes (Homo sapiens, UniProt P07947); assay: KinomeScan competition binding assay; design: purchased DiscoveRx Corporation (KinomeScan service)
# From the text: as §1, §2
# [9] = biological target: c-Kit (D816V) (Homo sapiens, UniProt P10721, D816V); assay: KinomeScan competition binding assay; design: purchased DiscoveRx Corporation (KinomeScan service)
# From the text: as §1, §2
# [10] = biological target: Flt1 (Homo sapiens, UniProt P17948); assay: KinaseProfiler kinase activity assay; format: biochemical; design: purchased EMD Millipore Corp. (KinaseProfiler service); details: ATP at Km
# From the text: (§3) A summary is provided below.
# [11] = biological target: T2, Flt3 (D835Y); assay: KinaseProfiler kinase activity assay; format: biochemical; design: purchased EMD Millipore Corp. (KinaseProfiler service); details: ATP at Km
# From the text: as §3
# [12] = biological target: Flt3 (Homo sapiens, UniProt P36888); assay: KinaseProfiler kinase activity assay; format: biochemical; design: purchased EMD Millipore Corp. (KinaseProfiler service); details: Flt3 wild-type; ATP at Km
# From the text: as §3
# [13] = biological target: Flt4 (Homo sapiens, UniProt P35916); assay: KinaseProfiler kinase activity assay; format: biochemical; design: purchased EMD Millipore Corp. (KinaseProfiler service); details: ATP at Km
# From the text: as §3
# [14] = biological target: T3, Ret; assay: KinaseProfiler kinase activity assay; format: biochemical; design: purchased EMD Millipore Corp. (KinaseProfiler service); details: ATP at Km
# From the text: as §3
# [15] = biological target: Ret (V804L) (Homo sapiens, UniProt P07949, V804L); assay: KinaseProfiler kinase activity assay; format: biochemical; design: purchased EMD Millipore Corp. (KinaseProfiler service); details: ATP at Km
# From the text: as §3
# [16] = biological target: Ret (V804M) (Homo sapiens, UniProt P07949, V804M); assay: KinaseProfiler kinase activity assay; format: biochemical; design: purchased EMD Millipore Corp. (KinaseProfiler service); details: ATP at Km
# From the text: as §3
# [17] = biological target: Stk10 (Homo sapiens, UniProt O94804); assay: KinaseProfiler kinase activity assay; format: biochemical; design: purchased EMD Millipore Corp. (KinaseProfiler service); details: Stk10 (LOK); ATP at Km
# From the text: as §3
# [18] = biological target: TEK (Homo sapiens, UniProt Q02763); assay: KinaseProfiler kinase activity assay; format: biochemical; design: purchased EMD Millipore Corp. (KinaseProfiler service); details: ATP at Km
# From the text: as §3
# [19] = biological target: T4, Wee1; assay: KinaseProfiler kinase activity assay; format: biochemical; design: purchased EMD Millipore Corp. (KinaseProfiler service); details: ATP at Km
# From the text: as §3
# [20] = biological target: T5, Yes; assay: KinaseProfiler kinase activity assay; format: biochemical; design: purchased EMD Millipore Corp. (KinaseProfiler service); details: ATP at Km
# From the text: as §3
# T3 sequence (P07949 29-1114): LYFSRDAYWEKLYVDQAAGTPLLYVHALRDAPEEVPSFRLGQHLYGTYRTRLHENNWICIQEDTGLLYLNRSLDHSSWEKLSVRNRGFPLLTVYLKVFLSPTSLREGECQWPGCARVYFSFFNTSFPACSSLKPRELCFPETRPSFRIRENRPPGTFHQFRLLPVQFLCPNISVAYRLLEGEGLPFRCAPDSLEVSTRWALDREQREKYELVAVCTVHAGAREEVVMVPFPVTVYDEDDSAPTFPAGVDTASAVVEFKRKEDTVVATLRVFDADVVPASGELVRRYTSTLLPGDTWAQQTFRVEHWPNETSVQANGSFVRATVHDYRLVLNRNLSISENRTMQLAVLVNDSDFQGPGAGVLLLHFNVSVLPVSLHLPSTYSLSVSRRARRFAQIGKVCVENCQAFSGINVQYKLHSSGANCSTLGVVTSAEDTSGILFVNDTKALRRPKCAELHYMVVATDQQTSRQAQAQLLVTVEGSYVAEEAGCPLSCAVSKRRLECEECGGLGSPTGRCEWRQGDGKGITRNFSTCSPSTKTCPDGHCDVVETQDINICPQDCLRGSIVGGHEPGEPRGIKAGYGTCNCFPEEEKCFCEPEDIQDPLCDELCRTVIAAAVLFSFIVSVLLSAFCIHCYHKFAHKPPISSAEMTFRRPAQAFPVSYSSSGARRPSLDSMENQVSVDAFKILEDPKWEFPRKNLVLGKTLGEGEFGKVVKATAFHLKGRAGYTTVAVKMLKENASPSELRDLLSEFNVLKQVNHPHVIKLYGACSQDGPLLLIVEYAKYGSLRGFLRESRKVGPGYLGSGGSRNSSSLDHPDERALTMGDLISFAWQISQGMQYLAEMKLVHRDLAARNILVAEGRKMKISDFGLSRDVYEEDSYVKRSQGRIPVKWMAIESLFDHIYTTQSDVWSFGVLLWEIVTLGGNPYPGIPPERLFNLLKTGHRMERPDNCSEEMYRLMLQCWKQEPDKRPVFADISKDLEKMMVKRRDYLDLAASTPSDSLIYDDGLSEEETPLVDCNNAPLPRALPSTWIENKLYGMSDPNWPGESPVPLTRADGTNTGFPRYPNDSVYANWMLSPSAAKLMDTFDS
# T4 sequence (P30291 whole entry): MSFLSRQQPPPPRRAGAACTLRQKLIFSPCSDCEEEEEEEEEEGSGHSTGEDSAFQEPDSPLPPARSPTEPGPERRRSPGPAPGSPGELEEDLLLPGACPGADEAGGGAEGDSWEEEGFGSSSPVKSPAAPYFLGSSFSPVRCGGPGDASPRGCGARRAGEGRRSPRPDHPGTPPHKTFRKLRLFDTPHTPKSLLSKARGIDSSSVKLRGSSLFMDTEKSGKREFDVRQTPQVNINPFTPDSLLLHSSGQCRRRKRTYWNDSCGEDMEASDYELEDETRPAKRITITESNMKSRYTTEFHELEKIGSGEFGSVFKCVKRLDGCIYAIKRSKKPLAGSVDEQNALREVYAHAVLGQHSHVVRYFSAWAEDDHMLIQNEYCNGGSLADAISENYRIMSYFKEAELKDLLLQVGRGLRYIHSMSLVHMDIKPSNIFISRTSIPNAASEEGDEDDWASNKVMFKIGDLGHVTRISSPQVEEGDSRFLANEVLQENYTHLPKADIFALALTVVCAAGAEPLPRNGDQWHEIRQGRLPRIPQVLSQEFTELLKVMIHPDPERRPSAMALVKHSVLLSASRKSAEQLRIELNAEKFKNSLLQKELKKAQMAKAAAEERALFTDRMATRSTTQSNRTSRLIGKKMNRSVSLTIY
# Chain of TEK (Q02763 23-1124): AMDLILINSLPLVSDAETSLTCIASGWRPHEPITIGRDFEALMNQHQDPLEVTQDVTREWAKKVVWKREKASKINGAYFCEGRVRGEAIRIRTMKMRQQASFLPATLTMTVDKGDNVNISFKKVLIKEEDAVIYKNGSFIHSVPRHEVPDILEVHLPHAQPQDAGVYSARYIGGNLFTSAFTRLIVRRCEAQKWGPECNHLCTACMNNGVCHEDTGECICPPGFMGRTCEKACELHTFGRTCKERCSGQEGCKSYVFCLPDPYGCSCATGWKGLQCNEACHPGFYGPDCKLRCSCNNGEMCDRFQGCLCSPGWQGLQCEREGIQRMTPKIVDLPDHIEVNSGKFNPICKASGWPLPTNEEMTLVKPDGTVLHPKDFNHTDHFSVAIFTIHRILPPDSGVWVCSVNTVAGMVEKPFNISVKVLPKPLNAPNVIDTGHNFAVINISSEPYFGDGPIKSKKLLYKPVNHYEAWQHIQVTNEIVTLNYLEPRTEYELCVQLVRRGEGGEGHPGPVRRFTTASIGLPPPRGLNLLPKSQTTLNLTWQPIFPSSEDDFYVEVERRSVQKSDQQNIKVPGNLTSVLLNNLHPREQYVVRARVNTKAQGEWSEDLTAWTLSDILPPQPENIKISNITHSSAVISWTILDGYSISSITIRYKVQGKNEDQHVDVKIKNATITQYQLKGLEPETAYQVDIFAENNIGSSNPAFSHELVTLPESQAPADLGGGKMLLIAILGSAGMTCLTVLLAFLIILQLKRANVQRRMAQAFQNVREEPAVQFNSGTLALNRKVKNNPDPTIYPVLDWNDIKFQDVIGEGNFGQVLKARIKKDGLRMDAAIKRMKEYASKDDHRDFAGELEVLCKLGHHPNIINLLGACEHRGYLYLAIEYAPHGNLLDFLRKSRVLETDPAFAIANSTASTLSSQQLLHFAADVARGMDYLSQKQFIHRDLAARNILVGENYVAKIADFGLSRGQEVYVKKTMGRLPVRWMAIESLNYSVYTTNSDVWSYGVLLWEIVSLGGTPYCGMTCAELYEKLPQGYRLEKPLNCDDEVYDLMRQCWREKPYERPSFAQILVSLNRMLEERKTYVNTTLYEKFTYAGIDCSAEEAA
# T5 sequence (P07947 whole entry): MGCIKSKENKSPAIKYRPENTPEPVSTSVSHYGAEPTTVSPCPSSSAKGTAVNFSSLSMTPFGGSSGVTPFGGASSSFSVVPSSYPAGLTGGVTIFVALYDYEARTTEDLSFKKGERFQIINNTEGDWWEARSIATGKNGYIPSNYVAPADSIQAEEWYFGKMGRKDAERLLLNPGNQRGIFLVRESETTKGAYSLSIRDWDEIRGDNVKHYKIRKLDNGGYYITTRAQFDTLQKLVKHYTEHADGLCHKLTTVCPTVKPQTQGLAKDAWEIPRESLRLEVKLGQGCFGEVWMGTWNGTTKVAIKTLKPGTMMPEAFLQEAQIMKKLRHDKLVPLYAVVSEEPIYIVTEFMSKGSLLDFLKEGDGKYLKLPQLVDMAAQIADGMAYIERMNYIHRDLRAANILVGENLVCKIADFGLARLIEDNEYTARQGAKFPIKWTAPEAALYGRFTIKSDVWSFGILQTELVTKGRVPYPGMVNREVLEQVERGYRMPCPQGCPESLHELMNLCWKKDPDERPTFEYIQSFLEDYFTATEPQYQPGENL
# Chain of Ret (V804M) (P07949 29-1114 V804M): as the sequence (P07949 29-1114) above, with V776M counted along it
# Chain of Flt4 (P35916 25-1363): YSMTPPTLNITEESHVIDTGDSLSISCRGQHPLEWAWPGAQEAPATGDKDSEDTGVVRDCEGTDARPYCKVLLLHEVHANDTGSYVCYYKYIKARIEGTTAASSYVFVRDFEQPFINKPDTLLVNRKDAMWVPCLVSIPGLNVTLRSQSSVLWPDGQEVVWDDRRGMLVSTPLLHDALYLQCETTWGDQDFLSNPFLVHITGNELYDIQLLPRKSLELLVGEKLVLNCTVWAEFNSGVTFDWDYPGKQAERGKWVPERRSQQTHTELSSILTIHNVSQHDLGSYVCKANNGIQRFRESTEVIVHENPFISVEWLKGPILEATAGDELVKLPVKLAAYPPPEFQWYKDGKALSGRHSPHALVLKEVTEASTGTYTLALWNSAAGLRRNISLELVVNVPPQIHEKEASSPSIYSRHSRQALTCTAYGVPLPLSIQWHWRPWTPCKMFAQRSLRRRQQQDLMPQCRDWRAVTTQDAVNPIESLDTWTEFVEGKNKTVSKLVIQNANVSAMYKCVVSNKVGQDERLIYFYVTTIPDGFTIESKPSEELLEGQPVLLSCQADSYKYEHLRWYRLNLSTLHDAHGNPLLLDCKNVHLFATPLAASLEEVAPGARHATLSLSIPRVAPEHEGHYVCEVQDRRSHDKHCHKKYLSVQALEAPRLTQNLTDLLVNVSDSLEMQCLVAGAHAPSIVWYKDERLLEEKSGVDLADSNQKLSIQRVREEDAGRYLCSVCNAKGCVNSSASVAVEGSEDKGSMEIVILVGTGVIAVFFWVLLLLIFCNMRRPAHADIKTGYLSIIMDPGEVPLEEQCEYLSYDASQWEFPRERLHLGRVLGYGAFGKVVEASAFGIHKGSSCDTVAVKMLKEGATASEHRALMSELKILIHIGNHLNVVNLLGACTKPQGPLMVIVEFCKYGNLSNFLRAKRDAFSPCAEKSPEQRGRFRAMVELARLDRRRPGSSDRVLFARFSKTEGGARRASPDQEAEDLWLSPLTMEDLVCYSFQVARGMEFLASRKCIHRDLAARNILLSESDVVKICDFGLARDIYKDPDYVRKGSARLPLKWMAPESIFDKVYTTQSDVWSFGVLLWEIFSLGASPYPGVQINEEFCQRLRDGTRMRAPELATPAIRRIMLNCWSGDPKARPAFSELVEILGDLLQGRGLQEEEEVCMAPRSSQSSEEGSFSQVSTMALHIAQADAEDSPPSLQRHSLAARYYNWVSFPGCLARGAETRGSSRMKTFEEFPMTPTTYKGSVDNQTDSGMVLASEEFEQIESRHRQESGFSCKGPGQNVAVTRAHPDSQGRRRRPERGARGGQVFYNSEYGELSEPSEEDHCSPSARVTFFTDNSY
# Chain of Ret (V804L) (P07949 29-1114 V804L): as the sequence (P07949 29-1114) above, with V776L counted along it
smiles,measurement,setting,value
"Nc1nc(Nc2ccc3c(c2)CC[C@@H](N2CCCC2)CC3)nn1-c1cc2c(nn1)-c1ccccc1CCC2 [Compound A, 1-(6,7-dihydro-5H-benzo[6,7]cyclohepta[1,2-c]pyridazine-3-yl)-N^3-(7-(S)-(pyrrolidin-1-yl)-6,7,8,9-tetrahydro-5H-benzo[7]annulene-2-yl)-1H-1,2,4-triazole-3,5-diamine]",pIC50,[1],6.54
same,leukemia cell burden,[2],reduced leukemia cell burden
same,Kd,[3],10 nM
same,Kd,[4],18 nM
same,Kd,[5],11.2 nM
same,Kd,[6],73 nM
same,Kd,[7],17 nM
same,Kd,[8],810 nM
same,pKd,[9],7.99
same,IC50,[10],40 nM
same,IC50,[11],13 nM
same,IC50,[12],122 nM
same,IC50,[13],41 nM
same,IC50,[14],38 nM and 22 nM
same,IC50,[15],11 nM
same,IC50,[16],21 nM
same,IC50,[17],22 nM
same,IC50,[18],30 nM and 41 nM
same,IC50,[19],32 nM
same,IC50,[20],43 nM
